Data taken from patent publication US11542316B2, “S-Arrestin peptides and therapeutic uses thereof” (APITOPE INTERNATIONAL NV, priority 2017, dated 2023).
Ends that are not written are not given here.

These substances were tested on SAg-specific hybridoma cells / T cell line with VAVY APC (assay: Antigen Processing Independent Presentation System (APIPS) assay, fresh or fixed VAVY APC). Conditions: DR3 hybridoma clone (IL-2, 48 h) or T cell line (IFN-γ, 24 h).
Format: cell-based, DR3 mice
Outline: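 SAg-specific hybridomas (5×10^4) or peptide-restimulated T cell lines from immunized DR3 mice were cultured with fresh or 0.5% paraformaldehyde-fixed (5 min, RT) VAVY APCs and peptide (10 or 25 μg/ml). Read-out: IL-2 ELISA at 48 h for hybridomas, IFN-γ ELISA at 24 h for T cell lines.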

Substance | behaves as apitope (response to peptide presented by fresh or fixed APC)
LPLLANNRERRGIA-NH2 [HIP-24HM3, LPLLANNRERRGIA] | behave as apitopes
KKKVIFKKISRDKSVTIYLGKKK-NH2 [HIP-115NE3-KKK] | behave as apitopes
KKKLTFRRDLYFSRVQVYKKK-NH2 [HIP-17J-KKK] | behave as apitopes
LTKTLTLLPLLANNRERR-NH2 [HIP-24DG, LTKTLTLLPLLANNRERR] | behave as apitopes
VIFKKISRDKSVTIYLG-NH2 [HIP-115NE3, VIFKKISRDKSVTIYLG] | behave as apitopes
